Key:
Experiment in all cases: In vitro membrane feeder repellency assay, probing of treated collagen membranes (Example 2)
Format in all cases: in vivo
[1] = tested on: female Anopheles quadrimaculatus mosquitoes; conditions: for Percent repellency: 1% Nootkatone in ethanol, 25 μL on collagen membrane, twenty minutes, average ± SE, n = 5
From the text: (§1) A laboratory trial was required to evaluate the repellency of 1% Nootkatone against female Aedes aegypti, Culex quinquefasciatus, and Anopheles quadrimaculatus mosquitoes using an in vitro method.
(§2) Female adult laboratory reared Aedes aegypti, Culex quinquefasciatus, and Anopheles quadrimaculatus mosquitoes (susceptible) were obtained from Benzon Research in Carlisle, Pa. 250 mosquitoes were used per replicate (5 replicates per test, per species). Adult mosquitoes were 3-8 days old.
(§3) Nootkatone was diluted in ethanol and acetone (note that Nootkatone diluted in acetone was not tested against An. quadrimaculatus). A positive control consisting of 20% DEET in ethanol was prepared using stock solutions. Negative controls consisted of no treatment, and ethanol-only treatment.
(§4) The treatments were applied directly to prepared collagen membranes by pipetting 25 μL of the appropriate substance onto a membrane and spreading it evenly with the tip of the pipette.
(§5) Exposure container. A 30.5 cm×30.5 cm×30.5 cm rigid plastic frame supported by four, 4 cm high legs, with a sleeved entry on one side and a sliding door on the bottom.
(§6) Membrane feeder. Five wells (3 cm in diameter×8 mm in depth) in line on a hollow plastic block (6 cm wide×22 cm long×3 cm deep), which fits through the sliding door in the bottom of the exposure container. Hoses attached to each side of the block circulate heated water that is pumped from a water bath. The sliding door in the bottom of the exposure container covers and uncovers the wells in the membrane feeder, allowing mosquitoes to access the wells.
(§7) Test set-up. The membrane feeder was connected to a heated water bath, and warm water passed through the feeder via a circulating pump so that the wells were warmed to 89-95° F. Seventy-two (72) mg of ATP (disodium salt) were added to 26 mL of warmed citrated bovine blood, which was poured into the wells until they were completely full.
(§8) The collagen membranes were placed on vacuum greased wax paper for treatment. They were then treated as described above and left for five minutes to dry. After they dried, the membranes were placed over each of the wells (using vacuum grease as an adhesive), completely covering the blood.
(§9) Exposure to mosquitoes. The mosquitoes were released into the exposure container just prior to exposure to the membranes. The exposure container was then placed on the membrane feeder and the sliding door opened, allowing the mosquitoes to access the wells. The number of mosquitoes probing each membrane was recorded every two minutes for twenty minutes.
(§10) The above procedures were repeated until five replicates were completed. A new batch of 250 female mosquitoes and fresh blood were used for each replicate, and the wells were cleaned in between replicates. The position of the treatments was rotated for each replicate, so that each treatment was tested on each of the five wells.
(§11) Percent repellency was calculated for each replicate using the total number of probes with the following formula:
(§12) [formula] • where C=the total number of probes on the untreated well • and T=the total number of probes on the treated well
(§13) Average percent repellency and standard error were then calculated across all five replicates. Shapiro-Wilks tests were conducted to determine the normality of the data, based on total number of probes per replicate. Depending on normality, student t-tests (with concurrent F-tests for variance) or Mann-Whitney tests were then used to determine significance between the treatments.

[2] = tested on: female Aedes aegypti mosquitoes; conditions: for Percent repellency: 25 μL on collagen membrane, twenty minutes, average ± SE, n = 5
From the text: as §1, §2, §3, §4, §5, §6, §7, §8, §9, §10, §11, §12, §13

[3] = tested on: female Culex quinquefasciatus mosquitoes; conditions: for Percent repellency: 25 μL on collagen membrane, twenty minutes, average ± SE, n = 5
From the text: as §1, §2, §3, §4, §5, §6, §7, §8, §9, §10, §11, §12, §13

[4] = 1% Nootkatone diluted in ethanol and in acetone

C=C(C)[C@@H]1CCC2=CC(=O)C[C@@H](C)[C@]2(C)C1 [Nootkatone, nootkatone]
Percent repellency [1]: 90.3% | Percent repellency ([1]; listed as Nootkatone (ethanol)): 90.3 ± 5.3% | Protection compared with ethanol alone (significance) ([1]; 1% nootkatone diluted in ethanol): not found to be significantly different from ethanol alone | Protection compared with untreated or ethanol alone (significance, α=0.05) [2, 4]: significantly higher protection | Protection level compared with 20% DEET (significance, α=0.05) [2, 4]: not significantly different from 20% DEET | Percent repellency ([2]; 1% Nootkatone in acetone): 91.5 ± 2.1% | Percent repellency ([2]; 1% Nootkatone in ethanol): 92.0 ± 3.4% | Protection compared with untreated or ethanol alone (significance, α=0.05) [3, 4]: significantly higher protection | Protection level compared with 20% DEET (significance, α=0.05) [3, 4]: not significantly different from 20% DEET | Percent repellency ([3]; 1% Nootkatone in acetone): 80.1 ± 10.0% | Percent repellency ([3]; 1% Nootkatone in ethanol): 83.8 ± 5.5%

From US11800867B2, “Methods of repelling biting arthropods, reducing pathogen spread and treating arthropod infestation” (priority 2016, dated 2023)
